Results as given in patent publication US11155520B2, “Picolinamides as fungicides” (Dow AgroSciences LLC, priority 2018, dated 2021).

Tests used:
Type in all cases: in vivo
Phakopsora pachyrhizi = test: Fungicidal activity: Asian soybean rust (PHAKPA); details: High volume, 25 ppm; for PHAKPA 1DP disease control: 1 Day Protectant; for PHAKPA 3DC disease control: 3 Day Curative
Description: Technical grades of materials were dissolved in acetone, which were then mixed with nine volumes of water containing 0.011% Tween 20. The fungicide solutions were applied onto soybean seedlings using an automated booth sprayer to run-off. All sprayed plants were allowed to air dry prior to further handling.
Soybean plants (variety Williams 82) were grown in soil-less Metro mix, with one plant per pot. Two week old seedlings were used for testing. Plants were inoculated either 3 days prior to or 1 day after fungicide treatments. Plants were incubated for 24 h in a dark dew room at 22° C. and 100% relative humidity then transferred to a growth room at 23° C. for disease to develop. Disease severity was assessed on the sprayed leaves.

Alternaria solani = test: Fungicidal activity: tomato early blight (ALTESO); details: 1DP test at 100 ppm
Description: Technical grades of materials were dissolved in acetone, which were then mixed with nine volumes of water containing 110 ppm Triton X-100. The fungicide solutions were applied onto wheat seedlings using an automated booth sprayer to run-off. All sprayed plants were allowed to air dry prior to further handling. All fungicides were evaluated using the aforementioned method for their activity vs. all target diseases, unless stated otherwise. Wheat leaf blotch and brown rust activity were also evaluated using track spray applications, in which case the fungicides were formulated as EC formulations, containing 0.1% Trycol 5941 in the spray solutions. Tomato plants (variety Outdoor Girl) were propagated in soil-less Metro mix, with each pot having one plant, and used when 12 to 14 days old. Test plants were inoculated with an aqueous spore suspension of Alternaria solani 24 hr after fungicide treatments. After inoculation the plants were kept in 100% relative humidity (one day in a dark dew chamber followed by two to three days in a lighted dew chamber at 20° C.) to permit spores to germinate and infect the leaf. The plants were then transferred to a growth room at 22° C. for disease to develop. Fungicide formulation, application and disease assessment on the sprayed leaves followed the procedures as described in the Example A.

Cercospora beticola = test: Fungicidal activity: leaf spot of sugar beets (CERCBE); details: 1DP test at 100 ppm, sugar beet
Description: Technical grades of materials were dissolved in acetone, which were then mixed with nine volumes of water containing 110 ppm Triton X-100. The fungicide solutions were applied onto wheat seedlings using an automated booth sprayer to run-off. All sprayed plants were allowed to air dry prior to further handling. All fungicides were evaluated using the aforementioned method for their activity vs. all target diseases, unless stated otherwise. Wheat leaf blotch and brown rust activity were also evaluated using track spray applications, in which case the fungicides were formulated as EC formulations, containing 0.1% Trycol 5941 in the spray solutions. Sugar beet plants (variety HH88) were grown in soil-less Metro mix and trimmed regularly to maintain a uniform plant size prior to test. Plants were inoculated with a spore suspension 24 hr after fungicide treatments. Inoculated plants were kept in a dew chamber at 22° C. for 48 hr then incubated in a greenhouse set at 24° C. under a clear plastic hood with bottom ventilation until disease symptoms were fully expressed. Fungicide formulation, application and disease assessment on the sprayed leaves followed the procedures as described in the Example A.

[1] = test system: Glomerella lagenarium; Anamorph: Colletotrichum lagenarium; test: Fungicidal activity: cucumber anthracnose (COLLLA); details: 1DP test at 100 ppm
Description: Technical grades of materials were dissolved in acetone, which were then mixed with nine volumes of water containing 110 ppm Triton X-100. The fungicide solutions were applied onto wheat seedlings using an automated booth sprayer to run-off. All sprayed plants were allowed to air dry prior to further handling. All fungicides were evaluated using the aforementioned method for their activity vs. all target diseases, unless stated otherwise. Wheat leaf blotch and brown rust activity were also evaluated using track spray applications, in which case the fungicides were formulated as EC formulations, containing 0.1% Trycol 5941 in the spray solutions. Cucumber seedlings (variety Bush Pickle) were propagated in soil-less Metro mix, with each pot having one plant, and used in the test when 12 to 14 days old. Test plants were inoculated with an aqueous spore suspension of Colletotrichum lagenarium 24 hr after fungicide treatments. After inoculation the plants were kept in a dew room at 22° C. with 100% relative humidity for 48 hr to permit spores to germinate and infect the leaf. The plants were then transferred to a growth room set at 22° C. for disease to develop. Fungicide formulation, application and disease assessment on the sprayed leaves followed the procedures as described in the Example A.

Parastagonospora nodorum = test: Fungicidal activity: wheat glume blotch (LEPTNO); details: 1DP test at 100 ppm
Description: Technical grades of materials were dissolved in acetone, which were then mixed with nine volumes of water containing 110 ppm Triton X-100. The fungicide solutions were applied onto wheat seedlings using an automated booth sprayer to run-off. All sprayed plants were allowed to air dry prior to further handling. All fungicides were evaluated using the aforementioned method for their activity vs. all target diseases, unless stated otherwise. Wheat leaf blotch and brown rust activity were also evaluated using track spray applications, in which case the fungicides were formulated as EC formulations, containing 0.1% Trycol 5941 in the spray solutions. Wheat plants (variety Yuma) were grown from seed in a greenhouse in 50% mineral soil/50% soil-less Metro mix until the first leaf was fully emerged, with 7-10 seedlings per pot. These plants were inoculated with an aqueous spore suspension of Parastagonospora nodorum 24 hr after fungicide treatments. After inoculation the plants were kept in 100% relative humidity (one day in a dark dew chamber followed by two days in a lighted dew chamber at 20° C.) to permit spores to germinate and infect the leaf. The plants were then transferred to a greenhouse set at 20° C. for disease to develop. Fungicide formulation, application and disease assessment followed the procedures as described in the Example A.

[2] = test system: Pseudoperonospora cubensis; test: Fungicidal activity: cucumber downy mildew (PSPECU); details: 1DP test at 100 ppm
Description: Technical grades of materials were dissolved in acetone, which were then mixed with nine volumes of water containing 110 ppm Triton X-100. The fungicide solutions were applied onto wheat seedlings using an automated booth sprayer to run-off. All sprayed plants were allowed to air dry prior to further handling. All fungicides were evaluated using the aforementioned method for their activity vs. all target diseases, unless stated otherwise. Wheat leaf blotch and brown rust activity were also evaluated using track spray applications, in which case the fungicides were formulated as EC formulations, containing 0.1% Trycol 5941 in the spray solutions. Cucumber seedlings (variety Bush Pickle) were grown in soil-less Metro mix, with one plant per pot, and used in the test when 12 to 14 days old. Plants were inoculated with a spore suspension 24 hr following fungicide treatments. Test plants were inoculated with an aqueous spore suspension of Pseudoperonospora cubensis 24 hr after fungicide treatments. After inoculation the plants were kept in a dew room at 22° C. with 100% relative humidity for 24 hr to permit spores to germinate and infect the leaf. The plants were then transferred to a greenhouse set at 20° C. until disease was fully expressed. Fungicide formulation, application and disease assessment on the sprayed leaves followed the procedures as described in the Example A.

[3] = test system: Magnaporthe grisea; Anamorph: Pyricularia oryzae; details: 1DP test at 100 ppm, rice
Rhyncosporium secalis = test: Fungicidal activity: barley scald (RHYNSE); details: 1DP test at 100 ppm
Description: Technical grades of materials were dissolved in acetone, which were then mixed with nine volumes of water containing 110 ppm Triton X-100. The fungicide solutions were applied onto wheat seedlings using an automated booth sprayer to run-off. All sprayed plants were allowed to air dry prior to further handling. All fungicides were evaluated using the aforementioned method for their activity vs. all target diseases, unless stated otherwise. Wheat leaf blotch and brown rust activity were also evaluated using track spray applications, in which case the fungicides were formulated as EC formulations, containing 0.1% Trycol 5941 in the spray solutions. Barley seedlings (variety Harrington) were propagated in soil-less Metro mix, with each pot having 8 to 12 plants, and used in the test when first leaf was fully emerged. Test plants were inoculated by an aqueous spore suspension of Rhyncosporium secalis 24 hr after fungicide treatments. After inoculation the plants were kept in a dew room at 20° C. with 100% relative humidity for 48 hr. The plants were then transferred to a greenhouse set at 20° C. for disease to develop. Fungicide formulation, application and disease assessment on the sprayed leaves followed the procedures as described in the Example A.

Uncinula necator = test: Fungicidal activity: grape powdery mildew (UNCINE); details: 1DP test at 100 ppm
Description: Technical grades of materials were dissolved in acetone, which were then mixed with nine volumes of water containing 110 ppm Triton X-100. The fungicide solutions were applied onto wheat seedlings using an automated booth sprayer to run-off. All sprayed plants were allowed to air dry prior to further handling. All fungicides were evaluated using the aforementioned method for their activity vs. all target diseases, unless stated otherwise. Wheat leaf blotch and brown rust activity were also evaluated using track spray applications, in which case the fungicides were formulated as EC formulations, containing 0.1% Trycol 5941 in the spray solutions. Grape seedlings (variety Carignane) were grown in soil-less Metro mix, with one plant per pot, and used in the test when approximately 1 month old. Plants were inoculated 24 hr after fungicide treatment by shaking spores from infected leaves over test plants. Plants were maintained in a greenhouse set at 20° C. until disease was fully developed. Fungicide formulation, application and disease assessment on sprayed leaves followed the procedures as described in the Example A.

SMILES | PHAKPA 1DP disease control (Phakopsora pachyrhizi) | PHAKPA 3DC disease control (Phakopsora pachyrhizi) | ALTESO disease control (Alternaria solani) | CERCBE disease control (Cercospora beticola) | COLLLA disease control [1] | LEPTNO disease control (Parastagonospora nodorum) | PSPECU disease control [2] | PYRIOR disease control [3] | RHYNSE disease control (Rhyncosporium secalis) | UNCINE disease control (Uncinula necator)
COc1ccnc(C(=O)NCC(=O)O[C@@H](C)[C@H](C)c2ccc(F)cc2C)c1OC(=O)C(C)C [Example 197] | D (≤0) | D (≤0) | – | – | – | – | – | – | – | –
COc1ccnc(C(=O)N[C@H](C(=O)O[C@@H](C)[C@H](C)c2ccc(F)cc2C)C(C)C)c1OC(=O)C(C)C [Example 210] | – | D (≤0) | – | – | – | – | – | – | – | –
COc1ccnc(C(=O)N[C@H](C(=O)O[C@H](C)[C@H](C)c2ccc(F)cc2C)C(C)C)c1OC(=O)C(C)C [Example 214] | B (≤80) | – | – | – | – | – | – | – | – | –
COc1ccnc(C(=O)N[C@@H](C)C(=O)O[C@H](C)[C@@H](C)c2ccccc2C)c1OC(=O)C(C)C [Example 225] | D (≤0) | – | – | – | – | – | – | – | – | –
COc1ccnc(C(=O)N[C@@H](C)C(=O)O[C@H](C)[C@H](C)c2ccccc2C)c1OC(C)=O [Example 263] | – | – | B (≤80) | B (≤80) | D (≤0) | B (≤80) | B (≤80) | B (≤80) | B (≤80) | A (>80)
COc1ccnc(C(=O)N[C@@H](C)C(=O)O[C@@H](C)[C@@H](C)c2ccccc2C)c1OC(C)=O [Example 264] | – | – | B (≤80) | A (>80) | B (≤80) | A (>80) | B (≤80) | A (>80) | B (≤80) | A (>80)
COc1ccnc(C(=O)N[C@@H](C)C(=O)O[C@@H](C)[C@@H](C)c2ccccc2C)c1OC(=O)C(C)C [Example 266] | – | – | B (≤80) | B (≤80) | D (≤0) | A (>80) | D (≤0) | A (>80) | B (≤80) | A (>80)
